Legend:
complementary DNA = test: Tm study of 10mer oligomeric compounds duplexed to DNA; assay type: binding; conditions: 150 mM NaCl, 10 mM phosphate, 0.1 mM EDTA, pH 7; for ΔTm/mod (° C.) vs DNA: duplex with complementary DNA, compared to unmodified 10mer A01
Protocol: (§1) The relative ability of a chemically-modified oligomeric compound to bind to complementary nucleic acid strands, as compared to natural oligonucleotides, is measured by obtaining the melting temperature of a hybridization complex of said chemically-modified oligomeric compound with its complementary unmodified target nucleic acid. The melting temperature (Tm), a characteristic physical property of double helixes, denotes the temperature in degrees centigrade at which 50% helical versus coiled (unhybridized) forms are present. Tm (also commonly referred to as binding affinity) is measured by using the UV spectrum to determine the formation and breakdown (melting) of hybridization. Base stacking, which occurs during hybridization, is accompanied by a reduction in UV absorption (hypochromicity). Consequently a reduction in UV absorption indicates a higher Tm. Following standard automated DNA synthesis protocols oligomeric compounds were prepared comprising one or more tricyclic nucleosides for Tm studies. After cleavage from the solid support, the oligomeric compounds were purified by ion exchange HPLC and analyzed by LCMS using standard procedures. The Tm of the modified 10mer oligomeric compounds were compared to an unmodified 10mer DNA oligonucleotide when duplexed to either DNA or RNA. Tm's were determined using a Cary 100 Bio spectrophotometer with the Cary Win UV thermal program was used to measure absorbance vs. temperature. For the Tm experiments, the oligomeric compounds were prepared at a concentration of […] in a buffer of 150 mM NaCl, 10 mM phosphate, 0.1 mM EDTA at pH 7. The concentration determined at 85° C. was […] after mixing of equal volumes of selected oligomeric compound and complementary RNA or DNA. The oligomeric compounds were hybridized with a complementary RNA or DNA by heating the duplex to 90° C. for 5 minutes and then cooling to room temperature. Tm measurements were taken using a spectrophotometer while the duplex solution was heated in a cuvette at a rate of 0.5° C./min starting at 15° C. until the temperature was 85° C. Tm values were determined using Vant Hoff calculations (A260 vs temperature curve) using non self-complementary sequences where the minimum absorbance related to the duplex and the maximum absorbance related to the non-duplex single strand are manually integrated into the program.

complementary RNA = test: Tm study of 10mer oligomeric compounds duplexed to RNA; assay type: binding; conditions: 150 mM NaCl, 10 mM phosphate, 0.1 mM EDTA, pH 7; for ΔTm/mod (° C.) vs RNA: duplex with complementary RNA, compared to unmodified 10mer A01
Protocol: as §1

AACTfGTfCACG (AACT_{f}GT_{f}CACG; as printed in the source, key not given here) [A10, 10mer phosphodiester DNA with two tricyclic nucleosides of subscript f]
ΔTm/mod (° C.) vs DNA (complementary DNA): −2.0 °C | ΔTm/mod (° C.) vs RNA (complementary RNA): +1.3 °C

AACTcGTcCACG [A07]
ΔTm/mod (° C.) vs DNA (complementary DNA): −1.0 °C | ΔTm/mod (° C.) vs RNA (complementary RNA): +1.3 °C

AACTGTbCACG [A02]
ΔTm/mod (° C.) vs DNA (complementary DNA): −0.9 °C | ΔTm/mod (° C.) vs RNA (complementary RNA): +0.4 °C

AaAaCaTdGaTdCaAaCaGa [A16]
ΔTm/mod (° C.) vs DNA (complementary DNA): +1.1 °C | ΔTm/mod (° C.) vs RNA (complementary RNA): +2.3 °C

AACTdGTdCACG (AACT_{d}GT_{d}CACG; as printed in the source, key not given here) [A08, 10mer phosphodiester DNA with two tricyclic nucleosides of subscript d]
ΔTm/mod (° C.) vs DNA (complementary DNA): −0.6 °C | ΔTm/mod (° C.) vs RNA (complementary RNA): +1.2 °C

AaAaCaTaGaTaCaAaCaGa [A11, reference compound]
ΔTm/mod (° C.) vs DNA (complementary DNA): +1.3 °C | ΔTm/mod (° C.) vs RNA (complementary RNA): +2.1 °C

AACTdGTCACG (AACT_{d}GTCACG; as printed in the source, key not given here) [A05, 10mer phosphodiester DNA with one tricyclic nucleoside of subscript d]
ΔTm/mod (° C.) vs DNA (complementary DNA): +0.4 °C | ΔTm/mod (° C.) vs RNA (complementary RNA): +2.4 °C

AACTbGTCACG [A04]
ΔTm/mod (° C.) vs DNA (complementary DNA): +0.1 °C | ΔTm/mod (° C.) vs RNA (complementary RNA): +2.4 °C

AACTGTdCACG (AACTGT_{d}CACG; as printed in the source, key not given here) [A03, 10mer phosphodiester DNA with one tricyclic nucleoside of subscript d, subscripts drawn in drawing 18]
ΔTm/mod (° C.) vs DNA (complementary DNA): +0.5 °C | ΔTm/mod (° C.) vs RNA (complementary RNA): +2.1 °C

AaAaCaTdGaTaCaAaCaGa [A13]
ΔTm/mod (° C.) vs DNA (complementary DNA): −3.8 °C | ΔTm/mod (° C.) vs RNA (complementary RNA): −2.6 °C

AACTbGTbCACG [A06]
ΔTm/mod (° C.) vs DNA (complementary DNA): −0.7 °C | ΔTm/mod (° C.) vs RNA (complementary RNA): +0.5 °C

AACTeGTeCACG (AACT_{e}GT_{e}CACG; as printed in the source, key not given here) [A09, 10mer phosphodiester DNA with two tricyclic nucleosides of subscript e (tc^hdT)]
ΔTm/mod (° C.) vs DNA (complementary DNA): −13.0 °C | ΔTm/mod (° C.) vs RNA (complementary RNA): −10.2 °C

AaAaCaTcGaTcCaAaCaGa [A15]
ΔTm/mod (° C.) vs DNA (complementary DNA): +1.1 °C | ΔTm/mod (° C.) vs RNA (complementary RNA): +2.0 °C

AaAaCaTbGaTbCaAaCaGa [A14]
ΔTm/mod (° C.) vs DNA (complementary DNA): +1.1 °C | ΔTm/mod (° C.) vs RNA (complementary RNA): +2.0 °C

AACTGTCACG (unmodified DNA) [A01, unmodified 10mer DNA oligonucleotide, phosphodiester linkages, reference compound]
Tm duplexed with DNA (complementary DNA): 47.9 °C | ΔTm/mod (° C.) vs DNA (complementary DNA): 0 °C | Tm duplexed with RNA (complementary RNA): 48.3 °C | ΔTm/mod (° C.) vs RNA (complementary RNA): 0 °C

AaAaCaTaGaTdCaAaCaGa [A12]
ΔTm/mod (° C.) vs DNA (complementary DNA): −2.8 °C | ΔTm/mod (° C.) vs RNA (complementary RNA): −0.6 °C

Reference: US9249178B2, “Tricyclic nucleosides and oligomeric compounds prepared therefrom” (UNIVERSITÄT BERN, priority 2012, dated 2016)
